From patent publication US20250129018A1, “PLEUROMUTILIN DERIVATIVES CONTAINING CYCLOALKYL GROUP AND PREPARATION METHODS AND APPLICATIONS THEREOF” (priority 2023, published 2025)
Converted amounts (≈) assume the structure as drawn. Read-outs that look alike come from different tables or passages of the source.

Legend:
[1] = test system: MRSA-337371; assay: MIC, two-fold serial dilution method; assay type: cell-based, Methicillin-resistant Staphylococcus aureus; conditions: MRSA-337371
Protocol: (§1) The pleuromutilin derivatives 1-4 prepared from Example 9 of the present disclosure were determined for their effect on Methicillin-resistant Staphylococcus aureus, Methicillin-resistant Staphylococcus epidermidis, standard strains of Staphylococcus aureus (S. aureus-29213 and S. aureus-25923), clinical strains 1-48 of S. aureus, Escherichia coli, S. agalactiae and S. dysgalactiae equisimilis (S. dysgalactiae-1, S. dysgalactiae-2, S. dysgalactiae-3) and minimum inhibitory concentration (MIC) using a two-fold serial dilution method, and the results were shown in Table 1, Table 2 and Table 3. The standard strains are commercially available from ATCC, and the clinical strains are preserved by Lanzhou Institute of Husbandry and Pharmaceutical Science of Chinese Academy of Agricultural Sciences (Lanzhou, Gansu, China).

[2] = test system: MRSE; assay: MIC, two-fold serial dilution method; assay type: cell-based, Methicillin-resistant Staphylococcus epidermidis
Protocol: as §1

[3] = test system: S. aureus-25923; assay: MIC, two-fold serial dilution method; assay type: cell-based, Staphylococcus aureus; conditions: S. aureus-25923
Protocol: as §1

[4] = test system: S. aureus-29213; assay: MIC, two-fold serial dilution method; assay type: cell-based, Staphylococcus aureus; conditions: S. aureus-29213
Protocol: as §1

[5] = test system: E. coli-25922; assay: MIC, two-fold serial dilution method; assay type: cell-based, Escherichia coli; conditions: E. coli-25922
Protocol: as §1

[6] = test system: S. agalactiae-1; assay: MIC, two-fold serial dilution method; assay type: cell-based; conditions: S. agalactiae-1
Protocol: as §1

[7] = test system: S. dysgalactiae-1; assay: MIC, two-fold serial dilution method; assay type: cell-based, S. dysgalactiae equisimilis; conditions: S. dysgalactiae-1
Protocol: as §1

[8] = test system: S. dysgalactiae-2; assay: MIC, two-fold serial dilution method; assay type: cell-based, S. dysgalactiae equisimilis; conditions: S. dysgalactiae-2
Protocol: as §1

[9] = test system: S. dysgalactiae-3; assay: MIC, two-fold serial dilution method; assay type: cell-based, S. dysgalactiae equisimilis; conditions: S. dysgalactiae-3
Protocol: as §1

[10] = test system: S. aureus-12; assay: MIC, clinical strain; assay type: cell-based, Staphylococcus aureus
Protocol: as §1

[11] = test system: S. aureus-13; assay: MIC, clinical strain; assay type: cell-based, Staphylococcus aureus
Protocol: as §1

[12] = test system: S. aureus-14; assay: MIC, clinical strain; assay type: cell-based, Staphylococcus aureus
Protocol: as §1

[13] = test system: S. aureus-18; assay: MIC, clinical strain; assay type: cell-based, Staphylococcus aureus
Protocol: as §1

[14] = test system: S. aureus-19; assay: MIC, clinical strain; assay type: cell-based, Staphylococcus aureus
Protocol: as §1

[15] = test system: S. aureus-1; assay: MIC, clinical strain; assay type: cell-based, Staphylococcus aureus
Protocol: as §1

[16] = test system: S. aureus-20; assay: MIC, clinical strain; assay type: cell-based, Staphylococcus aureus
Protocol: as §1

[17] = test system: S. aureus-21; assay: MIC, clinical strain; assay type: cell-based, Staphylococcus aureus
Protocol: as §1

[18] = test system: S. aureus-22; assay: MIC, clinical strain; assay type: cell-based, Staphylococcus aureus
Protocol: as §1

[19] = test system: S. aureus-23; assay: MIC, clinical strain; assay type: cell-based, Staphylococcus aureus
Protocol: as §1

[20] = test system: S. aureus-24; assay: MIC, clinical strain; assay type: cell-based, Staphylococcus aureus
Protocol: as §1

[21] = test system: S. aureus-25; assay: MIC, clinical strain; assay type: cell-based, Staphylococcus aureus
Protocol: as §1

[22] = test system: S. aureus-26; assay: MIC, clinical strain; assay type: cell-based, Staphylococcus aureus
Protocol: as §1

[23] = test system: S. aureus-28; assay: MIC, clinical strain; assay type: cell-based, Staphylococcus aureus
Protocol: as §1

[24] = test system: S. aureus-29; assay: MIC, clinical strain; assay type: cell-based, Staphylococcus aureus
Protocol: as §1

[25] = test system: S. aureus-30; assay: MIC, clinical strain; assay type: cell-based, Staphylococcus aureus
Protocol: as §1

[26] = test system: S. aureus-31; assay: MIC, clinical strain; assay type: cell-based, Staphylococcus aureus
Protocol: as §1

[27] = test system: S. aureus-32; assay: MIC, clinical strain; assay type: cell-based, Staphylococcus aureus
Protocol: as §1

[28] = test system: S. aureus-35; assay: MIC, clinical strain; assay type: cell-based, Staphylococcus aureus
Protocol: as §1

[29] = test system: S. aureus-36; assay: MIC, clinical strain; assay type: cell-based, Staphylococcus aureus
Protocol: as §1

[30] = test system: S. aureus-38; assay: MIC, clinical strain; assay type: cell-based, Staphylococcus aureus
Protocol: as §1

[31] = test system: S. aureus-39; assay: MIC, clinical strain; assay type: cell-based, Staphylococcus aureus
Protocol: as §1

[32] = test system: S. aureus-41; assay: MIC, clinical strain; assay type: cell-based, Staphylococcus aureus
Protocol: as §1

[33] = test system: S. aureus-42; assay: MIC, clinical strain; assay type: cell-based, Staphylococcus aureus
Protocol: as §1

[34] = test system: S. aureus-43; assay: MIC, clinical strain; assay type: cell-based, Staphylococcus aureus
Protocol: as §1

[35] = test system: S. aureus-44; assay: MIC, clinical strain; assay type: cell-based, Staphylococcus aureus
Protocol: as §1

[36] = test system: S. aureus-47; assay: MIC, clinical strain; assay type: cell-based, Staphylococcus aureus
Protocol: as §1

[37] = test system: S. aureus-48; assay: MIC, clinical strain; assay type: cell-based, Staphylococcus aureus
Protocol: as §1

[38] = test system: S. aureus-4; assay: MIC, clinical strain; assay type: cell-based, Staphylococcus aureus
Protocol: as §1

[39] = test system: S. aureus-5; assay: MIC, clinical strain; assay type: cell-based, Staphylococcus aureus
Protocol: as §1

[40] = test system: S. aureus-7; assay: MIC, clinical strain; assay type: cell-based, Staphylococcus aureus
Protocol: as §1

[41] = test system: S. aureus-8; assay: MIC, clinical strain; assay type: cell-based, Staphylococcus aureus
Protocol: as §1

[42] = Staphylococcus aureus, read-out: minimum inhibitory concentration
[43] = Streptococcus dysgalactiae, read-out: minimum inhibitory concentration

C=C[C@]1(C)C[C@@H](OC(=O)CSCCN(CC)CC)[C@]2(C)[C@H](C)CC[C@]3(CCC(=O)[C@H]32)[C@@H](C)[C@@H]1O [Tiamulin]
MIC [1, 42]: 0.25 mg/L (≈ 0.506 µM)
MIC ([2]; Staphylococcus epidermidis, read-out: minimum inhibitory concentration): 0.5 mg/L (≈ 1.01 µM)
MIC [3, 42]: 0.25 mg/L (≈ 0.506 µM)
MIC [4, 42]: 0.5 mg/L (≈ 1.01 µM)
MIC ([5]; Escherichia coli, read-out: minimum inhibitory concentration): > 16 mg/L
MIC ([6]; Streptococcus agalactiae, read-out: minimum inhibitory concentration): 0.25 mg/L (≈ 0.506 µM)
MIC [7, 43]: 0.25 mg/L (≈ 0.506 µM)
MIC [8, 43]: 0.25 mg/L (≈ 0.506 µM)
MIC [9, 43]: 0.25 mg/L (≈ 0.506 µM)
in vitro minimum inhibitory concentration [10]: 0.5
in vitro minimum inhibitory concentration [11]: 0.25 mg/L
in vitro minimum inhibitory concentration [12]: 0.5
in vitro minimum inhibitory concentration [13]: 0.125
in vitro minimum inhibitory concentration [14]: 0.5
in vitro minimum inhibitory concentration [15]: 0.5 mg/L
in vitro minimum inhibitory concentration [16]: 0.5 mg/L
in vitro minimum inhibitory concentration [17]: 0.5 mg/L
in vitro minimum inhibitory concentration [18]: 0.5 mg/L
in vitro minimum inhibitory concentration [19]: 0.5
in vitro minimum inhibitory concentration [20]: 0.25
in vitro minimum inhibitory concentration [21]: 0.5
in vitro minimum inhibitory concentration [22]: 0.5
in vitro minimum inhibitory concentration [23]: 1
in vitro minimum inhibitory concentration [24]: 1
in vitro minimum inhibitory concentration [25]: 0.5
in vitro minimum inhibitory concentration [26]: 0.5
in vitro minimum inhibitory concentration [27]: 1
in vitro minimum inhibitory concentration [28]: 0.5
in vitro minimum inhibitory concentration [29]: 0.25
in vitro minimum inhibitory concentration [30]: 0.5
in vitro minimum inhibitory concentration [31]: 0.25
in vitro minimum inhibitory concentration [32]: 0.5
in vitro minimum inhibitory concentration [33]: 0.5
in vitro minimum inhibitory concentration [34]: 1
in vitro minimum inhibitory concentration [35]: 0.5
in vitro minimum inhibitory concentration [36]: 0.5
in vitro minimum inhibitory concentration [37]: 0.5
in vitro minimum inhibitory concentration [38]: 0.5
in vitro minimum inhibitory concentration [39]: 0.5
in vitro minimum inhibitory concentration [40]: 1
in vitro minimum inhibitory concentration [41]: 0.5

C=CC1(C)CC(OC(=O)CSC(C)(C)CNC(=O)C2CCC2)C2(C)C(C)CCC3(CCC(=O)C32)C(C)C1O (stereo not shown) [derivative 2]
minimum inhibitory concentration [1]: 0.031 mg/L (≈ 0.0566 µM)
minimum inhibitory concentration [2]: 0.031 mg/L (≈ 0.0566 µM)
minimum inhibitory concentration [3]: 0.031 mg/L (≈ 0.0566 µM)
minimum inhibitory concentration [4]: 0.063 mg/L (≈ 0.115 µM)
minimum inhibitory concentration [5]: >16 mg/L
minimum inhibitory concentration [6]: 0.031 mg/L (≈ 0.0566 µM)
minimum inhibitory concentration [7]: 0.031 mg/L (≈ 0.0566 µM)
minimum inhibitory concentration [8]: 0.031 mg/L (≈ 0.0566 µM)
minimum inhibitory concentration [9]: 0.031 mg/L (≈ 0.0566 µM)
in vitro minimum inhibitory concentration [10]: 0.031
in vitro minimum inhibitory concentration ([11]; in µg/mL): 0.031
in vitro minimum inhibitory concentration [12]: 0.063
in vitro minimum inhibitory concentration [13]: 0.031
in vitro minimum inhibitory concentration [14]: 0.125
in vitro minimum inhibitory concentration ([15]; in µg/mL): 0.125
in vitro minimum inhibitory concentration ([16]; in µg/mL): 0.063
in vitro minimum inhibitory concentration ([17]; in µg/mL): 0.063
in vitro minimum inhibitory concentration ([18]; in µg/mL): 0.063
in vitro minimum inhibitory concentration [19]: 0.063
in vitro minimum inhibitory concentration [20]: 0.063
in vitro minimum inhibitory concentration [21]: 0.063
in vitro minimum inhibitory concentration [22]: 0.063
in vitro minimum inhibitory concentration [23]: 0.063
in vitro minimum inhibitory concentration [24]: 0.031
in vitro minimum inhibitory concentration [25]: 0.031
in vitro minimum inhibitory concentration [26]: 0.031
in vitro minimum inhibitory concentration [27]: 0.063
in vitro minimum inhibitory concentration [28]: 0.125
in vitro minimum inhibitory concentration [29]: 0.016
in vitro minimum inhibitory concentration [30]: 0.016
in vitro minimum inhibitory concentration [31]: 0.016
in vitro minimum inhibitory concentration [32]: 0.031
in vitro minimum inhibitory concentration [33]: 0.063
in vitro minimum inhibitory concentration [34]: 0.016
in vitro minimum inhibitory concentration [35]: 0.031
in vitro minimum inhibitory concentration [36]: 0.063
in vitro minimum inhibitory concentration [37]: 0.063
in vitro minimum inhibitory concentration [38]: 0.063
in vitro minimum inhibitory concentration [39]: 0.031
in vitro minimum inhibitory concentration [40]: 0.063
in vitro minimum inhibitory concentration [41]: 0.063
